Source: patent US20160168118A1, “N-(5-QUINOLIN-6-YL)PYRIDIN-3-YL) BENZSULFAMIDE DERIVATIVES, PREPARATION METHOD AND THERAPEUTIC USE THEREOF” (SECOND MILITARY MEDICAL UNIVERSITY, PLA, priority 2012, published 2016)
Values after ≈ are worked out from the molar mass of the structure shown. Where two headings read alike, the source gives them in different places.

Legend:
five human tumor cells = assay: MTT assay, five human tumor cells (summary in words); format: cell-based; details: A549, HCT116, HepG2, ZR-75-30, U87MG
Description: 1. Sample preparation: After dissolved with DMSO (Merck), PBS (−) was added to make 1000 μg/ml solution or a uniform suspension, and then diluted with PBS (−) containing the DMSO. Doxorubicin (DOX) was used as the positive control drug.
2. Cell Line • 1) A549 (human lung cancer cells); 2) HCT116 (human colon cancer cells); 3) HepG2 (human hepatoma cells); 4) ZR-75-30 (human breast cancer cells); 5) U87MG (human brain star glioblastoma)
DMEM+5-10% FBS+double resistant
MTT assay. 100 μl cell suspension was added at a concentration of 4˜5×10^4 cells/ml to each well of a 96-well plate, and was set at 37° C., 5% CO2 in the incubator. After 24 h, the sample solution was added, 10 μl/hole, double wells were set, 37° C., acting for 72 h at 5% CO2. […] of 5 mg/ml was added to each well, the dissolving liquid was added after acted for 4 h, 100 μl/hole, kept in the incubator, and read 570 nm OD with MK-2 automatic microplate reader after dissolution.

PI3Kγ = PI3Kγ (Homo sapiens, UniProt P48736); assay: ADP-Glo Luminescent Kinase Assay, PI3Kγ; format: biochemical; details: read-out: IC50 on PI3K gamma
PI3Kγ, sequence (P48736 whole entry, species assumed): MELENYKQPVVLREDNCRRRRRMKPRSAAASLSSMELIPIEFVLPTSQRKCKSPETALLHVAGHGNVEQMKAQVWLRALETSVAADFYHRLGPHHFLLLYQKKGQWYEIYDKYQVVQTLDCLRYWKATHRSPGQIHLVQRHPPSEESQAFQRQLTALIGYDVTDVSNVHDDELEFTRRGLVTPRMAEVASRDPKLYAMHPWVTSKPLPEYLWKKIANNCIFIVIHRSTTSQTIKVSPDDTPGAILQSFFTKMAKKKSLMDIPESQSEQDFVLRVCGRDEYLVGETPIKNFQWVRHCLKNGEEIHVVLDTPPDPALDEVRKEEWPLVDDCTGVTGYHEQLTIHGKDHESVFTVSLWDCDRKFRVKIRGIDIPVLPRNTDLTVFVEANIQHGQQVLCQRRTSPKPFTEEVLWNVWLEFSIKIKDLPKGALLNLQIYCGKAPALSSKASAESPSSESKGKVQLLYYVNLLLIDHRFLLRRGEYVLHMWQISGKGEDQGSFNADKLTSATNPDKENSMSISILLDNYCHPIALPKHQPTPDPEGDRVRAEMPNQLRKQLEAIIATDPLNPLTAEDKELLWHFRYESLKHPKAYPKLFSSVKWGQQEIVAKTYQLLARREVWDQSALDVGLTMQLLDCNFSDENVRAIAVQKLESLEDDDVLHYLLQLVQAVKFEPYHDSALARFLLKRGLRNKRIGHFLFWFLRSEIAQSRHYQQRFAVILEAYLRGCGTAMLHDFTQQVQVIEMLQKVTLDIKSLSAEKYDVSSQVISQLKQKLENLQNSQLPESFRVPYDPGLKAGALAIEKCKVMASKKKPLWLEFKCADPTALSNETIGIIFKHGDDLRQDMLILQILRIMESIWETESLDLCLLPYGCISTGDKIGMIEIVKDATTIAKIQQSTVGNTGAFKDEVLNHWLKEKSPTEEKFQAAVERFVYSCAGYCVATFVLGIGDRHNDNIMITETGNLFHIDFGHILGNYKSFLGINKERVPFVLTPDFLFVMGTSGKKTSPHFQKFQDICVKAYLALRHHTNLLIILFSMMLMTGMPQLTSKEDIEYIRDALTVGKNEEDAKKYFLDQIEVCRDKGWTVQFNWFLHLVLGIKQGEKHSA

[1] = Solubility test in buffer solution at pH=1; format: physicochemical; details: pH=1 buffer solution, simulated gastric fluid, thermodynamic from solid; buffer solution pH=1
Description: Compound 9 1.02 mg was precisely weighed and placed in 1.5 mL of EP tube, and 10 uL pH=1 buffer solution was added, vortexed for 30S and ultrasonic for 20 min. There was a lot of visible turbidity after that.
20 uL buffer was added and ultrasounded and the solution was found still turbid. Turbidity reduced after the solution was diluted to 1 mL and vortexed, while there still exist residual after diluted to 2 mL.

PC3 = assay: NCI cytotoxicity test, PC3; format: cell-based; details: Homo sapiens, PC-3
Excerpt: (§1) Cytotoxicity Test of Compound 9, 10 and 17 on 60 Kinds of Human Cancer Cell Lines from the US National Cancer Institute

[2] = In vivo pharmacokinetics in SD rats; details: for AUC(0-t): read-out: AUC(0-24); for half-life / bioavailability: rat, plasma; for bioavailability: oral, rats, intragastric 20 mg/kg vs iv 2 mg/kg
Description: SD rats, male, 4-6 weeks old, weighing 200-220 g, the total number is 12, were purchased from Shanghai Slac laboratory animal limited liability company, animal production license number: SCXK (Shanghai) 2008-0016, the experimental animals using license number: SCXK (Shanghai) 2007-0005, certificate number: 2007000514232.
SD rats were randomly divided into two groups, numbered A and B, while 6 rats in each group, before the experiment starts, the rats were fasted 12 hours overnight, group A were tail vein injected with compound 9 by dose 2 mg/kg; group B were intragastric administrated with Compound 9 suspensions, of which the dose was calculated as 20 mg/kg;
Group A: tail intravenous injection (i.v.) administrated compound 9. Orbital blood 0.3 mL was taken on 0, 5, 10, 15, 30, 45, 60 min, 2 h, 3 h, 4 h, 6 h, 8 h, 12 h, and was placed in 1.5 mL EP tube coated with heparin, shaked up and down for 3 times, centrifuged at 3500 rpm for 5 min to get supernatant, and was kept in refrigerator at −20° C. to save backup;
Dose was 2 mg/kg (2.6 mL/kg), administered in a concentration of 770 μg/mL, which was dissolved with mixed aqueous solution of 9.4% ethanol and 24.5% isopropanol;
Group B: intragastric administration (i.g.), dose of 20 mg/kg, administered in a concentration of 1.5 mg/mL, and 3.75% Tween 80 was used to dissolve compound 9, gavage dose was (13.3 mL/kg);
Orbital blood 0.5 mL was taken at 0, 5, 10, 15, 30, 45, 60 min, 2 h, 3 h, 4 h, 6 h, 8 h, 12 h, 24 h, and was placed in 1.5 mL EP tube coated with heparin, shaked up and down for 3 times, centrifuged at 3500 rpm for 5 min to get supernatant, and kept in refrigerator at −20° C. to save backup.
Plasma sample 100 μL was precisely measured, put in 1.5 mL plastic centrifuge tube, 10 μL methanol and 190 μL methanol solution of compound 17 (internal standard) of 100.8 ng·mL^−1 were added, vortex mixed for 30 s, centrifuged at 12000r·min^−1 for 10 min, 200 μL supernatant was taken and put into the vial, 5 μL injected for HPLC-MS analysis.
Analytical conditions: column: SHISEIDO MG-C18 (100 mm×3.0 mm, 3.0 μm), mobile phase: acetonitrile: water (containing 0.1% formic acid=25:75 (V/V); flow rate: 0.8 mL·min^−1 analysis time 6 min, column temperature: 25° C., the injection volume: 5 μL, split ratio 2:1. The mass was in ESI source positive ion mode, the capillary voltage was 4000V, drying flow rate was 10 L/min, the atomizing air pressure was 40 psi, temperature of the drying gas was 350° C. Selective ion mode (SIM), the ion of compound 9 was [M+H] ions+m/z 561.2 and that of the internal standard compound 17 [M+H]+m/z 591.2, and the debris voltage was 70 eV.
The data gained were substituted into the accompanying standard curve, thus obtaining the drug concentration in rat plasma.
The pharmacokinetic parameters were analyzed by using non-compartmental model, the peak concentration Cmax and peak time Tmax were taken Found value, and the pharmacokinetic parameters were processed to obtain the pharmacokinetic parameters result of single dose.

COLO205 = assay: NCI cytotoxicity test, COLO205; format: cell-based; details: Homo sapiens, COLO 205
Excerpt: as §1

[3] = male, SD, iv, rat plasma, tail vein injection, 2 mg/kg
[4] = male, SD, po, rat plasma, intragastric administration, 20 mg/kg
[5] = rat plasma, intragastric administration, 20 mg/kg
[6] = rat plasma, tail vein injection, 2 mg/kg

COc1ncc(-c2ccc3nccc(-c4ccc(CN(C)C)cc4)c3c2)cc1NS(=O)(=O)c1ccc(F)cc1F [Compound 9, N-(5-(4-(4-((dimethylamine)methyl)phenyl)quinolin-6-yl)-2-methoxypyridine-3-yl)-2,4-difluorobenzenesulfonamide]
in vitro proliferation inhibition (in words) (five human tumor cells): high in vitro proliferation inhibition | IC50 (PI3Kγ): 1.5 nM | solubility at 20 min [1]: 33.3 mg/mL (≈ 59.4 mM) | GI50 (PC3): < 10 nM | AUC [2, 3]: 3740 ng·h/mL | Cmax [2, 3]: 999 ng/mL | MRT [2, 3]: 8.54 h | Vd [2, 3]: 5.05 L/kg | clearance [2, 3]: 8.92 mL/min/kg | AUC(0-t) [2, 3]: 3450 ng·h/mL | AUC [2, 4]: 35600 ng·h/mL | Cmax [2, 4]: 7120 ng/mL | MRT [2, 4]: 6.46 h | Tmax [2, 4]: 30 min | AUC(0-t) [2, 4]: 34100 ng·h/mL | half-life ([2]; male, SD, iv, 2 mg/kg, rat plasma, tail vein injection): 393 min | bioavailability ([2]; male, SD, 20 mg/kg, read-out: Absolute bioavailability F0-t): 98.8% | bioavailability ([2]; male, SD, 20 mg/kg, read-out: Absolute bioavailability F0-∞): 95.2% | half-life ([2]; male, SD, po, 20 mg/kg, rat plasma, intragastric administration): 264 min | AUMC [2, 5]: 230.2 μg/mL · h | AUMC(0-24) [2, 5]: 183.0 μg/mL · h | k [2, 5]: 0.1573 h⁻¹ | t1/2 [2, 5]: 4.406 h | AUMC [2, 6]: 31.95 μg/mL · h | AUMC(0-24) [2, 6]: 22.23 μg/mL · h | k [2, 6]: 0.1063 h⁻¹ | GI50 (COLO205): 13.5 nM
